In one data set the test system is MRC5. Kind of data set: Cytotoxicity against human MRC5 at 300 to 400 ug/ml using crystal violet staining. The data set is classed as cell-based.
Data set [1] has as its system Mycobacterium tuberculosis. As to the kind of experiment: Antimicrobial activity against Mycobacterium tuberculosis H37Rv by Microplate Alamar blue assay. The data set is classed as functional.
In data set [2] the target is T1, 3-dehydroquinate dehydratase (Mycobacterium tuberculosis) (UniProt P9WPX7).
T1 sequence (whole entry): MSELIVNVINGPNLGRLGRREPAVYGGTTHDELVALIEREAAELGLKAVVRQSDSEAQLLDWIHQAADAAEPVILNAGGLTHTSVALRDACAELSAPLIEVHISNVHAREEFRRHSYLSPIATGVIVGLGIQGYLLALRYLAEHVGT
As to the kind of experiment: Reversible inhibition of Mycobacterium tuberculosis DHQ2.

Data set [3] deals with T2, 3-dehydroquinate dehydratase (Helicobacter pylori (strain ATCC 700392 / 26695) (Campylobacterpylori)) (UniProt Q48255).
T2 sequence (whole entry): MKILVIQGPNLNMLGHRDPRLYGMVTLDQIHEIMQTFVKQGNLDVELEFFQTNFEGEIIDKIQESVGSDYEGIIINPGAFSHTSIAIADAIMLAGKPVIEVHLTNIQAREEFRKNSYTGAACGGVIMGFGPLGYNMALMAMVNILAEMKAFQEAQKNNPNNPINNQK
As to the kind of experiment: Reversible inhibition of Helicobacter pylori DHQ2.

The target in data set [4] is T3, 3-dehydroquinate dehydratase (Mycobacterium tuberculosis, UniProt P9WPX7).
T3 sequence (P9WPX7 whole entry): T1 sequence (whole entry)
As to the kind of experiment: Competitive inhibition of Mycobacterium tuberculosis DHQ2.

The target of data set [5] is T4, 3-dehydroquinate dehydratase (Helicobacter pylori (strain ATCC 700392 / 26695) (Campylobacterpylori), UniProt Q48255).
T4 sequence (Q48255 whole entry): T2 sequence (whole entry)
Kind of data set: Competitive inhibition of Helicobacter pylori DHQ2.

These results are taken from ChEMBL document CHEMBL1821644, “A prodrug approach for improving antituberculosis activity of potent Mycobacterium tuberculosis type II dehydroquinase inhibitors” (J Med Chem, 2011).

≈ marks a conversion by molar mass, not a printed value. Calls of active or inactive are those of the source.

In general, MIC refers to the smallest concentration in the dilution series that meets the test's criterion for growth inhibition. The low end stands for inhibition by little substance, the high end for a need for much substance. Take `COC(=O)[C@]1(O)C=C(OCc2cc3cc(C)ccc3s2)[C@@H](O)[C@H](O)C1`: the Activity entry in the data set on MRC5 was “Non-toxic”. Further, the minimum inhibitory concentration (MIC) in data set [1] was greater than 160 µg/mL.

Regarding `CCOC(=O)[C@]1(O)C=C(OCc2cc3ccc(Cl)cc3s2)[C@@H](O)[C@H](O)C1`, the Activity entry in the data set on MRC5 is listed as “Non-toxic”. Besides, the MIC in data set [1] turned out to be 40 µg/mL (≈ 100 µM).

Consider `CCCOC(=O)[C@]1(O)C=C(OCc2ccc3ccccc3c2)[C@@H](OC(=O)CCC)[C@H](OC(=O)CCC)C1`, for which, in the data set with MRC5, the Activity entry was “Non-toxic”. Further, it took 5 µg/mL (≈ 9.75 µM) to inhibit growth in data set [1] (MIC).

Regarding `CCCOC(=O)[C@]1(O)C=C(OCc2ccc3sccc3c2)[C@@H](O)[C@H](O)C1`, in the data set with MRC5, the Activity entry was “Non-toxic”. The compound also returned an MIC in data set [1] of 20 µg/mL (≈ 52.8 µM).

`CCOC(=O)[C@]1(O)C=C(OCc2ccc3ccccc3c2)[C@@H](O)[C@H](O)C1`: the Activity entry with MRC5 was “Non-toxic”. The minimal inhibitory concentration (MIC) in data set [1] is 20 µg/mL (≈ 55.8 µM).

The Ki is the equilibrium dissociation constant of an inhibitor or competing ligand from its target. A low value points to tighter binding. In the case of `O=C(O)[C@@]1(O)C[C@@H](O)[C@H](O)C(OCc2cc3ccc(Cl)cc3s2)=C1Cc1cc2ccc(Cl)cc2s1`, the inhibition result in data set [2] and in data set [3] was “Active” throughout. Moreover, the Ki in data set [4] was 1100 nM; in data set [5], 6700 nM.

`O=C(O)[C@@]1(O)C[C@@H](O)[C@H](O)C(OCc2ccc3sccc3c2)=C1Cc1ccc2sccc2c1`: the inhibition entry in data set [2] and in data set [3] was “Active” in each case. The compound also had a Ki in data set [5] of 140 nM.

For `Cc1ccc2sc(CC3=C(OCc4cccs4)[C@@H](O)[C@H](O)C[C@]3(O)C(=O)O)cc2c1`, the inhibition result in data set [2] and in data set [3] was “Active” throughout. The inhibitory constant (Ki) in data set [4] worked out at 870 nM; in data set [5], 279 nM.

`COC(=O)[C@@]1(O)C[C@@H](O)[C@H](O)C(OCc2cc3cc(C)ccc3s2)=C1Cc1cc2cc(C)ccc2s1`: in the data set with MRC5, the Activity result is “Non-toxic”. In data set [1], this compound yielded an MIC greater than 160 µg/mL.

Regarding `O=C(O)[C@]1(O)C=C(/C=C/COc2ccc(F)cc2)[C@@H](O)[C@H](O)C1`, the affinity in data set [4], expressed as Ki, was 120 nM.

Turning to `O=C(O)[C@@]1(O)C[C@@H](O)[C@H](O)C(OCc2cc3ccccc3s2)=C1Cc1cccs1`, the inhibition entry in data set [2] and in data set [3] was “Active” each time. The compound further displayed an inhibition constant (Ki) in data set [5] of 280 nM.

As for `CCCOC(=O)[C@]1(O)C=C(OCc2cc3ccc(Cl)cc3s2)[C@@H](O)[C@H](O)C1`, the Activity result in the data set with MRC5 is “Non-toxic”. In data set [1], the MIC was determined as 40 µg/mL (≈ 96.9 µM).

Consider `CCCC(=O)O[C@@H]1C(OCc2ccc3ccccc3c2)=C[C@@](O)(C(=O)OCC)C[C@H]1OC(=O)CCC`, for which the Activity entry with MRC5 is listed as “Non-toxic”. For the same compound, the MIC in data set [1] worked out at 5 µg/mL (≈ 10 µM).

On to `CCCC(=O)O[C@@H]1C(OCc2ccc3ccccc3c2)=C[C@@](O)(C(=O)OCC)C[C@H]1O`, for which the Activity entry with MRC5 is “Non-toxic”. In data set [1], this compound returned a minimum inhibitory concentration (MIC) of 10 µg/mL (≈ 23.3 µM).

Turning to `CCOC(=O)[C@@]1(O)C[C@@H](O)[C@H](O)C(OCc2cc3ccc(Cl)cc3s2)=C1Cc1cc2ccc(Cl)cc2s1`, the Activity result in the data set on MRC5 is on record as “Non-toxic”. In data set [1], this compound returned an MIC greater than 160 µg/mL.

Turning to `Cc1ccc2sc(COC3=C[C@@](O)(C(=O)O)C[C@@H](O)[C@@H]3O)cc2c1`, the inhibition result in data set [2] and in data set [3] was “Active” each time.

Consider `O=C(O)[C@@]1(O)C[C@@H](O)[C@H](O)C(OCc2cccs2)=C1Cc1ccc2sccc2c1`, for which the inhibition entry in data set [2] and in data set [3] was “Active” throughout. Further, the Ki in data set [4] worked out at 59 nM; in data set [5], 100 nM.

Take `CCCOC(=O)[C@]1(O)C=C(OCc2ccc3sccc3c2)[C@@H](OC(=O)CCC)[C@H](OC(=O)CCC)C1`: the Activity result in the data set on MRC5 is recorded as “Non-toxic”. The compound further gave a minimum inhibitory concentration (MIC) in data set [1] of 20 µg/mL (≈ 38.6 µM).

Regarding `COC(=O)[C@]1(O)C=C(OCc2ccc3sccc3c2)[C@@H](O)[C@H](O)C1`, in the data set with MRC5, the Activity entry is recorded as “Non-toxic”. In data set [1], the MIC is greater than 160 µg/mL.

As for `COC(=O)[C@@]1(O)C[C@@H](O)[C@H](O)C(OCc2cc3ccc(Cl)cc3s2)=C1Cc1cc2ccc(Cl)cc2s1`, the Activity entry in the data set with MRC5 is reported as “Non-toxic”. Further, in data set [1], the MIC came to 80 µg/mL (≈ 141 µM).

As for `Cc1ccc2sc(COC3=C(Cc4cc5cc(C)ccc5s4)[C@@](O)(C(=O)O)C[C@@H](O)[C@@H]3O)cc2c1`, the inhibition entry in data set [2] and in data set [3] was “Active” each time. This compound also gave an inhibitory constant (Ki) in data set [5] of 50 nM.

`O=C(O)[C@@]1(O)C[C@@H](O)[C@H](O)C(OCc2ccc3ccccc3c2)=C1Cc1ccc2ccccc2c1`: the inhibition entry in data set [2] and in data set [3] was “Active” each time. Further, the inhibition constant Ki was determined as 6000 nM in data set [4] and 260 nM in data set [5].

With `O=C(O)[C@]1(O)C=C(OCc2cccs2)[C@@H](O)[C@H](O)C1`, the inhibition result in data set [2] and in data set [3] was “Active” throughout. The compound also showed an inhibition constant Ki in data set [4] of 235 nM.

As to `O=C(O)[C@@]1(O)C[C@@H](O)[C@H](O)C(OCc2cc3ccccc3s2)=C1Cc1cc2ccccc2s1`, the inhibition entry in data set [2] and in data set [3] was “Active” throughout. The inhibition constant Ki was 40 nM in data set [4] and 97 nM in data set [5].

Turning to `COC(=O)[C@]1(O)C=C(OCc2cc3ccccc3s2)[C@@H](O)[C@H](O)C1`, in the data set on MRC5, the Activity result is “Non-toxic”. The same compound displayed a minimum inhibitory concentration (MIC) in data set [1] greater than 160 µg/mL.

As to `C=CCC1=C(OCc2cc3ccccc3s2)[C@@H](O)[C@H](O)C[C@]1(O)C(=O)O`, the inhibition result in data set [2] and in data set [3] was “Active” in each case.

With `CCCOC(=O)[C@]1(O)C=C(OCc2ccc3ccccc3c2)[C@@H](O)[C@H](O)C1`, in the data set on MRC5, the Activity result was “Non-toxic”. The same compound registered a minimum inhibitory concentration (MIC) in data set [1] of 10 µg/mL (≈ 26.9 µM).

Take `CCCOC(=O)[C@]1(O)C=C(OCc2ccc3sccc3c2)[C@@H](OC(=O)CCC)[C@H](O)C1`: in the data set with MRC5, the Activity entry is on record as “Non-toxic”. Further, in data set [1], the MIC came out at 5 µg/mL (≈ 11.1 µM).

In the case of `O=C(O)[C@]1(O)C=C(OCc2cc3ccc(Cl)cc3s2)[C@@H](O)[C@H](O)C1`, the inhibition entry in data set [2] and in data set [3] was “Active” in each case. For the same compound, the Ki in data set [4] was found to be 35 nM; in data set [5], 205 nM.

As for `CCOC(=O)[C@@]1(O)C[C@@H](O)[C@H](O)C(OCc2ccc3sccc3c2)=C1Cc1ccc2sccc2c1`, the Activity result in the data set on MRC5 is listed as “Non-toxic”. The compound further had an MIC in data set [1] of 160 µg/mL (≈ 313 µM).

Turning to `COC(=O)[C@]1(O)C=C(OCc2cc3ccc(Cl)cc3s2)[C@@H](O)[C@H](O)C1`, the Activity entry in the data set on MRC5 is listed as “Non-toxic”. The compound further returned a minimal inhibitory concentration (MIC) in data set [1] greater than 160 µg/mL.

As for `CCCC(=O)O[C@@H]1C(OCc2ccc3sccc3c2)=C[C@@](O)(C(=O)OCC)C[C@H]1OC(=O)CCC`, in the data set on MRC5, the Activity entry is recorded as “Non-toxic”. Besides, inhibition of growth in data set [1] (MIC) required 5 µg/mL (≈ 9.91 µM).

As to `O=C(O)[C@]1(O)C=C(OCc2ccc3ccccc3c2)[C@@H](O)[C@H](O)C1`, the inhibition result in data set [2] and in data set [3] was “Active” each time. The Ki in data set [4] was found to be 35 nM; in data set [5], 310 nM.

`O=C(O)[C@]1(O)C=C(OCc2cc3ccccc3s2)[C@@H](O)[C@H](O)C1`: the inhibition entry in data set [2] and in data set [3] was “Active” throughout. The Ki in data set [4] was 28 nM.

For the compound `O=C(O)[C@@]1(O)C[C@@H](O)[C@H](O)C(OCc2cccs2)=C1Cc1cccs1`, the inhibition entry in data set [2] and in data set [3] was “Active” in each case. Further, the Ki in data set [4] came to 5100 nM; in data set [5], 14600 nM.

On to `O=C(O)[C@]1(O)C=C(OCc2ccc3sccc3c2)[C@@H](O)[C@H](O)C1`, for which the inhibition entry in data set [2] and in data set [3] was “Active” throughout.

In the case of `CCOC(=O)[C@]1(O)C=C(OCc2ccc3sccc3c2)[C@@H](O)[C@H](O)C1`, the Activity entry with MRC5 is given as “Non-toxic”. The MIC in data set [1] is 40 µg/mL (≈ 110 µM).

As for `CCCOC(=O)[C@]1(O)C=C(OCc2cc3ccccc3s2)[C@@H](O)[C@H](O)C1`, the Activity entry in the data set with MRC5 is on record as “Non-toxic”. The compound also yielded a minimal inhibitory concentration (MIC) in data set [1] of 5 µg/mL (≈ 13.2 µM).

`O=C(O)[C@]1(O)C=C(c2cccs2)[C@@H](O)[C@H](O)C1` had a Ki in data set [4] of 250 nM. This lies in the sub-micromolar range.

Consider `CCOC(=O)[C@]1(O)C=C(OCc2cc3ccccc3s2)[C@@H](O)[C@H](O)C1`, for which the Activity result with MRC5 is on record as “Non-toxic”. Also, the lowest concentration to inhibit growth in data set [1] (MIC) was 40 µg/mL (≈ 110 µM).
